Measured values published in patent US9988400B2 (Genentech, Inc., priority 2013, dated 2018).

Target: T1, HEK cells stably transfected with tetracycline inducible hNR1 and hNR2A (Homo sapiens, UniProt Q05586+Q12879)
T1 construct: expressed in transfected cells; host or cells: HEK cells, stably transfected, tetracycline/doxycycline inducible
Test: Assay 1: Cell-Based Assay, cytosolic calcium response to positive allosteric modulators (with 30 μM glycine and 300 nM L-glutamate, EC30)
Settings: Table 3; cytosolic calcium response, with 30 μM glycine and 300 nM L-glutamate (EC30); — = no plateau was reached
How it was run: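 Cells induced 24 h with 7.5 μg mL^−1 doxycycline plus 500 μM (+)-ketamine, loaded 60 min at 37 °C with calcium dye in Mg-free HBSS (1.8 mM Ca, probenecid, 10 μM (+)-ketamine, pH 7.15). Peak RFU over 5 min after compound addition, scaled to 100 μM L-glutamate (100%) and 0 μM (0%); four-parameter Hill fit for EC50, max % if no plateau.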

T1 sequence (Q12879 23-1464, other chains not shown): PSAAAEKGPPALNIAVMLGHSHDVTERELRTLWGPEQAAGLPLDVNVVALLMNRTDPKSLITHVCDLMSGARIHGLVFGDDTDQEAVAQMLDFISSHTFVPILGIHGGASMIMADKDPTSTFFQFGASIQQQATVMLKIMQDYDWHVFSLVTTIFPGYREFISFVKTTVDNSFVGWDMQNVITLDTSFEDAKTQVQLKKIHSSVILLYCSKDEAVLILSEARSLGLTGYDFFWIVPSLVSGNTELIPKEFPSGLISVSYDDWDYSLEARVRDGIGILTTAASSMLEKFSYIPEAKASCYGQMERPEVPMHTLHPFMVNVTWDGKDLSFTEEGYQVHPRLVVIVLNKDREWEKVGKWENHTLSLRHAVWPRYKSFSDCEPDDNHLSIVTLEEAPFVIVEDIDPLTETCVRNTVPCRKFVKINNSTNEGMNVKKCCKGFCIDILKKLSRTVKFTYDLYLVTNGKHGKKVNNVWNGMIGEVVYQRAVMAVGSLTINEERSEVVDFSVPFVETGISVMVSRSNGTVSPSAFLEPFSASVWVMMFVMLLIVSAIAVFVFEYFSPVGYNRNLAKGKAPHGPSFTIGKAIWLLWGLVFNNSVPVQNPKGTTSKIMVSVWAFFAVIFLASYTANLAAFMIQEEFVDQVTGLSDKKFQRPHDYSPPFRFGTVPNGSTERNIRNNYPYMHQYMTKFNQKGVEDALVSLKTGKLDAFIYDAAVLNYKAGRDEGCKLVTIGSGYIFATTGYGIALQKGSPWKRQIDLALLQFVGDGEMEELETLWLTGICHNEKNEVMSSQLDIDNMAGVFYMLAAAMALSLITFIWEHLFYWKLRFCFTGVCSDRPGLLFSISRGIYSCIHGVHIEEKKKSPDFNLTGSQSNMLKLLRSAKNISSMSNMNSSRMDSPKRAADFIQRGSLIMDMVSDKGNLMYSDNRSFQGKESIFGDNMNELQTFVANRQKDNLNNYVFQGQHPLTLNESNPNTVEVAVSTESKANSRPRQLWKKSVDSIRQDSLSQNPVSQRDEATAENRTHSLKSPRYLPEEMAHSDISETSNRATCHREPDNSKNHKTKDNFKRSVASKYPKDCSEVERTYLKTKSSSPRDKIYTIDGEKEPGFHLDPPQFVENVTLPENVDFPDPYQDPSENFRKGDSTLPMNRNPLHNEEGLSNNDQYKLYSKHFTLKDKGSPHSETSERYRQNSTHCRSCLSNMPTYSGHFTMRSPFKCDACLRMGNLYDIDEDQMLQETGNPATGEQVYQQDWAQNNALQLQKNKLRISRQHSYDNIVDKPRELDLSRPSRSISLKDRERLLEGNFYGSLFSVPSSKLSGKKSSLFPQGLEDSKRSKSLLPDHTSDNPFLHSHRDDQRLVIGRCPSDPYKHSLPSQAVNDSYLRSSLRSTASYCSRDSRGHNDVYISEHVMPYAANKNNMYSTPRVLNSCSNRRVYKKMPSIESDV

SMILES	EC50
CCN(Cc1cc(=O)n2c(C3CC3CO)c(C)sc2n1)c1ccc(Cl)cn1 (stereo not drawn) [compound 196, 7-[[(5-chloro-2-pyridyl)-ethyl-amino]methyl]-3-[2-(hydroxymethyl)cyclopropyl]-2-methyl-thiazolo[3,2-a]pyrimidin-5-one]	0.0642 µM
Cc1sc2nc(Cn3nc(C(F)(F)F)cc3Cl)cc(=O)n2c1-c1cncc(C#N)c1 [compound 197, 5-[7-[[5-chloro-3-(trifluoromethyl)pyrazol-1-yl]methyl]-2-methyl-5-oxo-thiazolo[3,2-a]pyrimidin-3-yl]pyridine-3-carbonitrile]	0.327 µM
Cc1sc2nc(Cn3nc(C(F)(F)F)cc3Cl)cc(=O)n2c1C(=O)C(F)(F)F [compound 198, 7-[[5-chloro-3-(trifluoromethyl)pyrazol-1-yl]methyl]-2-methyl-3-(2,2,2-trifluoroacetyl)thiazolo[3,2-a]pyrimidin-5-one]	0.201 µM
CC1CC1c1c(C(F)(F)F)sc2nc(Cn3nc(C(F)(F)F)cc3Cl)cc(=O)n12 (stereo not drawn) [compound 199, 7-[[5-chloro-3-(trifluoromethyl)pyrazol-1-yl]methyl]-3-(2-methylcyclopropyl)-2-(trifluoromethyl)thiazolo[3,2-a]pyrimidin-5-one]	1.39 µM
CC1CC1c1c(C(F)(F)F)sc2nc(Cn3nc(Cl)cc3C(F)(F)F)cc(=O)n12 (stereo not drawn) [compound 200, 7-[[3-chloro-5-(trifluoromethyl)pyrazol-1-yl]methyl]-3-(2-methylcyclopropyl)-2-(trifluoromethyl)thiazolo[3,2-a]pyrimidin-5-one]	3.13 µM
CCc1sc2nc(Cn3nc(C(F)(F)F)cc3Cl)cc(=O)n2c1-c1cccnc1 [compound 202, 7-[[5-chloro-3-(trifluoromethyl)pyrazol-1-yl]methyl]-2-ethyl-3-(3-pyridyl)thiazolo[3,2-a]pyrimidin-5-one]	23.9 µM
Cc1sc2nc(Cn3nc(C(F)(F)F)cc3Cl)cc(=O)n2c1C(O)C(F)(F)F (stereo not drawn) [compound 203, 7-[[5-chloro-3-(trifluoromethyl)pyrazol-1-yl]methyl]-2-methyl-3-(2,2,2-trifluoro-1-hydroxy-ethyl)thiazolo[3,2-a]pyrimidin-5-one]	5.85 µM
CCNC(=O)c1c(C)sc2nc(CN(CC)c3ccc(Br)cn3)cc(=O)n12 [compound 204, 7-[[(5-bromo-2-pyridyl)-ethyl-amino]methyl]-N-ethyl-2-methyl-5-oxo-thiazolo[3,2-a]pyrimidine-3-carboxamide]	5.12 µM
CCNC(=O)c1c(C(F)(F)F)sc2nc(CN(CC)c3ccc(F)cn3)cc(=O)n12 [compound 205, N-ethyl-7-[[ethyl-(5-fluoro-2-pyridyl)amino]methyl]-5-oxo-2-(trifluoromethyl)thiazolo[3,2-a]pyrimidine-3-carboxamide]	1.12 µM
O=c1cc(Cn2nc(C(F)(F)F)cc2Cl)nc2sc(C(F)(F)F)c(N3CCC3)n12 [compound 206, 3-(Azetidin-1-yl)-7-[[5-chloro-3-(trifluoromethyl)pyrazol-1-yl]methyl]-2-(trifluoromethyl)thiazolo[3,2-a]pyrimidin-5-one]	7.19 µM
COc1cc(C(F)(F)F)nn1Cc1cc(=O)n2c(C3CC3C#N)c(C)sc2n1 (stereo not drawn) [compound 209, 2-[7-[[5-methoxy-3-(trifluoromethyl)pyrazol-1-yl]methyl]-2-methyl-5-oxo-thiazolo[3,2-a]pyrimidin-3-yl]cyclopropanecarbonitrile]	0.0666 µM
COc1cc(C(F)(F)F)n(Cc2cc(=O)n3c(C4CC4C#N)c(C)sc3n2)n1 (stereo not drawn) [compound 210, 2-[7-[[3-methoxy-5-(trifluoromethyl)pyrazol-1-yl]methyl]-2-methyl-5-oxo-thiazolo[3,2-a]pyrimidin-3-yl]cyclopropanecarbonitrile]	8.92 µM
CCc1sc2nc(Cn3nc(C(F)(F)F)cc3Cl)cc(=O)n2c1C(C)=O [compound 211, 3-acetyl-7-[[5-chloro-3-(trifluoromethyl)pyrazol-1-yl]methyl]-2-ethyl-thiazolo[3,2-a]pyrimidin-5-one]	0.31 µM
CCc1sc2nc(Cn3nc(Cl)cc3C(F)(F)F)cc(=O)n2c1C(C)=O [compound 212, 3-acetyl-7-[[3-chloro-5-(trifluoromethyl)pyrazol-1-yl]methyl]-2-ethyl-thiazolo[3,2-a]pyrimidin-5-one]	5.84 µM
CCc1sc2nc(Cn3nc(C(F)(F)F)cc3Cl)cc(=O)n2c1C1CC1C#N (stereo not drawn) [compound 213, 2-[7-[[5-chloro-3-(trifluoromethyl)pyrazol-1-yl]methyl]-2-ethyl-5-oxo-thiazolo[3,2-a]pyrimidin-3-yl]cyclopropanecarbonitrile]	0.066 µM
CCc1sc2nc(Cn3nc(Cl)cc3C(F)(F)F)cc(=O)n2c1C1CC1C#N (stereo not drawn) [compound 214, 2-[7-[[3-chloro-5-(trifluoromethyl)pyrazol-1-yl]methyl]-2-ethyl-5-oxo-thiazolo[3,2-a]pyrimidin-3-yl]cyclopropanecarbonitrile]	0.18 µM
Cc1sc2nc(Cn3nc(C(F)(F)F)cc3Cl)cc(=O)n2c1Br [compound 215, 3-bromo-7-[[5-chloro-3-(trifluoromethyl)pyrazol-1-yl]methyl]-2-methyl-thiazolo[3,2-a]pyrimidin-5-one]	0.0911 µM
Cc1sc2nc(Cn3nc(Cl)cc3C(F)(F)F)cc(=O)n2c1Br [compound 216, 3-bromo-7-[[3-chloro-5-(trifluoromethyl)pyrazol-1-yl]methyl]-2-methyl-thiazolo[3,2-a]pyrimidin-5-one]	0.0594 µM
COc1sc2nc(Cn3nc(C(F)(F)F)cc3Cl)cc(=O)n2c1Cl [compound 217, 3-chloro-7-[[5-chloro-3-(trifluoromethyl)pyrazol-1-yl]methyl]-2-methoxy-thiazolo[3,2-a]pyrimidin-5-one]	4.74 µM
COc1sc2nc(Cn3nc(Cl)cc3C(F)(F)F)cc(=O)n2c1Cl [compound 218, 3-chloro-7-[[3-chloro-5-(trifluoromethyl)pyrazol-1-yl]methyl]-2-methoxy-thiazolo[3,2-a]pyrimidin-5-one]	83 µM

Continued, values first:

EC50	SMILES
10.5 µM	CSc1c(C(F)(F)F)sc2nc(Cn3nc(C(F)(F)F)cc3Cl)cc(=O)n12 [compound 219, 7-[[5-chloro-3-(trifluoromethyl)pyrazol-1-yl]methyl]-3-methylsulfanyl-2-(trifluoromethyl)thiazolo[3,2-a]pyrimidin-5-one]
47 µM	CCN(Cc1cc(=O)n2c(C3CC3(C#N)CO)csc2n1)c1ccc(F)cc1 (stereo not drawn) [compound 220, 2-[7-[(N-Ethyl-4-fluoro-anilino)methyl]-5-oxo-thiazolo[3,2-a]pyrimidin-3-yl]-1-(hydroxymethyl)cyclopropanecarbonitrile]
3.76 µM	Cc1sc2nc(Cn3nc(C(F)(F)F)cc3Cl)cc(=O)n2c1CC1CC1 [compound 221, 7-[[5-chloro-3-(trifluoromethyl)pyrazol-1-yl]methyl]-3-(cyclopropylmethyl)-2-methyl-thiazolo[3,2-a]pyrimidin-5-one]
2.92 µM	Cc1sc2nc(Cn3nc(C(F)(F)F)cc3Cl)cc(=O)n2c1C(C)CO (stereo not drawn) [compound 222, 7-[[5-Chloro-3-(trifluoromethyl)pyrazol-1-yl]methyl]-3-(2-hydroxy-1-methyl-ethyl)-2-methyl-thiazolo[3,2-a]pyrimidin-5-one]
10.9 µM	Cc1sc2nc(Cn3nc(Cl)cc3C(F)(F)F)cc(=O)n2c1C(C)CO (stereo not drawn) [compound 223, 7-[[3-chloro-5-(trifluoromethyl)pyrazol-1-yl]methyl]-3-(2-hydroxy-1-methyl-ethyl)-2-methyl-thiazolo[3,2-a]pyrimidin-5-one]
0.366 µM	Cc1sc2nc(Cn3nc(C(F)(F)F)cc3Cl)cc(=O)n2c1C(=O)C1CC1 [compound 224, 7-[[5-chloro-3-(trifluoromethyl)pyrazol-1-yl]methyl]-3-(cyclopropanecarbonyl)-2-methyl-thiazolo[3,2-a]pyrimidin-5-one]
8.69 µM	O=c1cc(Cn2nc(C(F)(F)F)cc2Cl)nc2scc(Br)n12 [compound 225, 3-bromo-7-[[5-chloro-3-(trifluoromethyl)pyrazol-1-yl]methyl]thiazolo[3,2-a]pyrimidin-5-one]
1.42 µM	O=c1cc(Cn2nc(Cl)cc2C(F)(F)F)nc2scc(Br)n12 [compound 226, 3-bromo-7-[[3-chloro-5-(trifluoromethyl)pyrazol-1-yl]methyl]thiazolo[3,2-a]pyrimidin-5-one]
13 µM	Cc1sc2nc(Cn3nc(N)cc3Cl)cc(=O)n2c1Br [compound 227, 7-[(3-amino-5-chloro-pyrazol-1-yl)methyl]-3-bromo-2-methyl-thiazolo[3,2-a]pyrimidin-5-one]
32.2 µM	Cc1sc2nc(Cn3nc(Cl)cc3N)cc(=O)n2c1Br [compound 228, 7-[(5-amino-3-chloro-pyrazol-1-yl)methyl]-3-bromo-2-methyl-thiazolo[3,2-a]pyrimidin-5-one]
6.46 µM	Cc1sc2nc(Cn3nc(C(F)(F)F)cc3Cl)cc(=O)n2c1CC#N [compound 229, 2-[7-[[5-chloro-3-(trifluoromethyl)pyrazol-1-yl]methyl]-2-methyl-5-oxo-thiazolo[3,2-a]pyrimidin-3-yl]acetonitrile]
6.86 µM	CCNC(=O)c1c(C(F)(F)F)sc2nc(CN(C)c3ccc(F)cn3)cc(=O)n12 [compound 230, N-ethyl-7-[[(5-fluoro-2-pyridyl)-methyl-amino]methyl]-5-oxo-2-(trifluoromethyl)thiazolo[3,2-a]pyrimidine-3-carboxamide]
61.3 µM	O=c1cc(Cn2nc(C(F)(F)F)cc2Cl)nc2sc(C(F)(F)F)c(N3CC(F)(F)C3)n12 [compound 231, 7-[[5-chloro-3-(trifluoromethyl)pyrazol-1-yl]methyl]-3-(3,3-difluoroazetidin-1-yl)-2-(trifluoromethyl)thiazolo[3,2-a]pyrimidin-5-one]
